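How tested: cells in 96-well plates exposed to compound for 48 hours at five concentrations. At the GI50, growth is halved.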 Active and inactive are the calls of the source. No stated cut-off is given here; in the data, active = GI50 up to about 1.1 µM and inactive = higher.
Columns and labels:
Experiment in all cases: NCI-60 cell line screen, 48 h
MDA-MB-435 = system: MDA-MB-435
HOP-62 = system: HOP-62
HCT-116 = system: HCT-116
SF-268 = system: SF-268
M14 = system: M14
NCI/ADR-RES = system: NCI/ADR-RES
SN12C = system: SN12C
OVCAR-8 = system: OVCAR-8
T47D = system: T47D
NCI-H522 = system: NCI-H522
HL-60 = system: HL-60
SW-620 = system: SW-620
HOP-92 = system: HOP-92
HCC 2998 = system: HCC 2998
K562 = system: K562
Hs-578T = system: Hs-578T
Malme-3M = system: Malme-3M
SK-MEL-28 = system: SK-MEL-28
RXF 393 = system: RXF 393
OVCAR-3 = system: OVCAR-3

Row | SMILES | GI50 (MDA-MB-435) | GI50 (HOP-62) | GI50 (HCT-116) | GI50 (SF-268) | GI50 (M14) | GI50 (NCI/ADR-RES) | GI50 (SN12C) | GI50 (OVCAR-8) | GI50 (T47D) | GI50 (NCI-H522) | GI50 (HL-60) | GI50 (SW-620) | GI50 (HOP-92) | GI50 (HCC 2998) | GI50 (K562) | GI50 (Hs-578T) | GI50 (Malme-3M) | GI50 (SK-MEL-28) | GI50 (RXF 393) | GI50 (OVCAR-3)
1 | CC(CO)CCNc1ncnc2c1ncn2CCC(=O)OC(C)(C)C (stereo not given) | > 100 µM (inactive) | > 100 µM (inactive) | > 100 µM (inactive) | > 100 µM (inactive) | > 100 µM (inactive) | > 100 µM (inactive) | > 100 µM (inactive) | > 100 µM (inactive) | > 100 µM (inactive) | > 100 µM (inactive) | > 100 µM (inactive) | > 100 µM (inactive) | > 100 µM (inactive) | > 100 µM (inactive) | > 100 µM (inactive) | > 100 µM (inactive) | > 100 µM (inactive) | > 100 µM (inactive) | > 100 µM (inactive) | > 100 µM (inactive)
2 | O=C1CCCCC1C(O)(C(F)(F)F)C(F)(F)Cl (stereo not given) | > 10 µM (inactive) | > 10 µM (inactive) | > 10 µM (inactive) | > 10 µM (inactive) | > 10 µM (inactive) | > 10 µM (inactive) | > 10 µM (inactive) | > 10 µM (inactive) | > 10 µM (inactive) | > 10 µM (inactive) | > 10 µM (inactive) | > 10 µM (inactive) | > 10 µM (inactive) | > 10 µM (inactive) | > 10 µM (inactive) | > 10 µM (inactive) | > 10 µM (inactive) | > 10 µM (inactive) | > 10 µM (inactive) | > 10 µM (inactive)
3 | CCOC(=O)/C=C(/C(=O)OCC)n1cc(C)c(=O)n(Cc2cnnn2COCCOC(C)=O)c1=O | 14.4 µM (inactive) | 49.7 µM (inactive) | 13.3 µM (inactive) | 17.4 µM (inactive) | 14.7 µM (inactive) | 23.6 µM (inactive) | 22.1 µM (inactive) | 14.7 µM (inactive) | 6.93 µM (inactive) | 1.58 µM (inactive) | 3.48 µM (inactive) | 3.81 µM (inactive) | 2.43 µM (inactive) | 20 µM (inactive) | 2.99 µM (inactive) | 19.1 µM (inactive) | 2.8 µM (inactive) | 16.4 µM (inactive) | 2.64 µM (inactive) | 15.3 µM (inactive)
4 | CCOC(=O)Cn1c(=O)c2nc(SC)sc2n(-c2ccc(C)cc2)c1=S | 99.5 µM (inactive) | 20 µM (inactive) | > 71.8 µM (inactive) | 30.1 µM (inactive) | > 61.7 µM (inactive) | 50.6 µM (inactive) | > 52.2 µM (inactive) | 36.6 µM (inactive) | > 87.1 µM (inactive) | 79.6 µM (inactive) | > 100 µM (inactive) | > 100 µM (inactive) | 21.6 µM (inactive) | > 56.9 µM (inactive) | > 100 µM (inactive) | 19.2 µM (inactive) | 40.4 µM (inactive) | > 100 µM (inactive) | 22.8 µM (inactive) | 50.4 µM (inactive)
5 | CC(=O)OC12OC(C)(C3C(=O)N(c4ccccc4)C(=O)C31)N(c1ccccc1)C2=O (stereo not given) | > 100 µM (inactive) | > 100 µM (inactive) | > 100 µM (inactive) | > 100 µM (inactive) | > 100 µM (inactive) | > 100 µM (inactive) | > 100 µM (inactive) | > 100 µM (inactive) | > 100 µM (inactive) | > 100 µM (inactive) | > 100 µM (inactive) | > 100 µM (inactive) | 45.7 µM (inactive) | 51.6 µM (inactive) | > 100 µM (inactive) | > 100 µM (inactive) | > 100 µM (inactive) | > 100 µM (inactive) | > 100 µM (inactive) | > 100 µM (inactive)
6 | CCNC(=O)c1cc(/C=C/c2ccc([N+](=O)[O-])o2)nc2ccccc12 | 2.19 µM (inactive) | 19.6 µM (inactive) | 5.4 µM (inactive) | 23.7 µM (inactive) | 2.34 µM (inactive) | 51.4 µM (inactive) | 15.3 µM (inactive) | 15.8 µM (inactive) | > 100 µM (inactive) | 4.21 µM (inactive) | 2.75 µM (inactive) | 13.7 µM (inactive) | > 22.4 µM (inactive) | 5.26 µM (inactive) | 6.79 µM (inactive) | 63.7 µM (inactive) | 15.7 µM (inactive) | 5.32 µM (inactive) | 10.2 µM (inactive) | > 62.4 µM (inactive)
7 | COc1ccc2oc(=O)c(-c3nc4ccccc4o3)cc2c1 | 16.7 µM (inactive) | 64.9 µM (inactive) | > 100 µM (inactive) | > 100 µM (inactive) | > 100 µM (inactive) | 40.5 µM (inactive) | > 100 µM (inactive) | > 100 µM (inactive) | 58.2 µM (inactive) | 50.2 µM (inactive) | 29.9 µM (inactive) | > 100 µM (inactive) | > 100 µM (inactive) | 55 µM (inactive) | 69.5 µM (inactive) | > 100 µM (inactive) | > 100 µM (inactive) | > 100 µM (inactive) | 53.3 µM (inactive) | 59.4 µM (inactive)
8 | CCC1C(=O)OCc2c1cc1n(c2=O)Cc2cc3ccccc3nc2-1 (stereo not given) | 44.3 µM (inactive) | 2.08 µM (inactive) | 8.41 µM (inactive) | 3.67 µM (inactive) | 3.38 µM (inactive) | 8.43 µM (inactive) | 5.07 µM (inactive) | 5.69 µM (inactive) | 4.38 µM (inactive) | 7.73 µM (inactive) | 1.88 µM (inactive) | 7.16 µM (inactive) | 13.1 µM (inactive) | 25.9 µM (inactive) | 18.1 µM (inactive) | > 54.3 µM (inactive) | 60.3 µM (inactive) | 13.2 µM (inactive) | 23.8 µM (inactive) | > 100 µM (inactive)
9 | Cc1cccc2c(N)c3cccc(C(=O)NCC[N+](C)(C)Cc4sc(N5CCOCC5)nc4[N+](=O)[O-])c3nc12 | 5.21 µM (inactive) | 0.491 µM (active) | 1.93 µM (inactive) | 23 µM (inactive) | 2.77 µM (inactive) | 3.12 µM (inactive) | 1.65 µM (inactive) | 2.12 µM (inactive) | 12.7 µM (inactive) | 1.12 µM (inactive) | 0.071 µM (active) | 0.6 µM (active) | 15.2 µM (inactive) | 1.41 µM (inactive) | 1.16 µM (inactive) | 0.748 µM (active) | 5.93 µM (inactive) | 29.7 µM (inactive) | 4.36 µM (inactive) | 2.09 µM (inactive)
10 | Cc1nc(C)c(N2CCN(CN)CC2)c(O)n1 | > 100 µM (inactive) | > 100 µM (inactive) | > 100 µM (inactive) | > 100 µM (inactive) | > 100 µM (inactive) | > 100 µM (inactive) | > 100 µM (inactive) | > 100 µM (inactive) | > 100 µM (inactive) | > 100 µM (inactive) | > 100 µM (inactive) | > 100 µM (inactive) | > 100 µM (inactive) | > 100 µM (inactive) | > 100 µM (inactive) | > 100 µM (inactive) | > 100 µM (inactive) | > 100 µM (inactive) | > 100 µM (inactive) | > 100 µM (inactive)
11 | Cc1[nH]c(=O)nc(N/N=C/c2ccc(Cl)cc2)c1C(=O)Nc1ccc(Cl)cc1 | 39.4 µM (inactive) | 10.6 µM (inactive) | 7.59 µM (inactive) | 41.8 µM (inactive) | 8.07 µM (inactive) | 34.1 µM (inactive) | 35.6 µM (inactive) | 10.2 µM (inactive) | 13.7 µM (inactive) | 27.3 µM (inactive) | > 100 µM (inactive) | 16.6 µM (inactive) | 28.8 µM (inactive) | > 100 µM (inactive) | 22.9 µM (inactive) | > 100 µM (inactive) | 16.9 µM (inactive) | 27.4 µM (inactive) | 23 µM (inactive) | 8.97 µM (inactive)
12 | OCC1OC(c2scc3c(=S)[nH]cnc23)C(O)C1O (stereo not given) | 20.4 µM (inactive) | 10.7 µM (inactive) | 5.3 µM (inactive) | 21.2 µM (inactive) | 6.53 µM (inactive) | 3.05 µM (inactive) | 6.15 µM (inactive) | 1.24 µM (inactive) | 0.82 µM (active) | 15.8 µM (inactive) | 3.63 µM (inactive) | 6.76 µM (inactive) | 0.796 µM (active) | 7.03 µM (inactive) | 13.6 µM (inactive) | 1.77 µM (inactive) | 15.8 µM (inactive) | 74 µM (inactive) | 11.9 µM (inactive) | 2.19 µM (inactive)
13 | Cc1c2c(nc3ccccc13)C(=O)c1cccnc1C2=O | 1.79 µM (inactive) | 20.6 µM (inactive) | 3.91 µM (inactive) | 25.2 µM (inactive) | 6.52 µM (inactive) | 27.2 µM (inactive) | 5.79 µM (inactive) | 16.8 µM (inactive) | 26.7 µM (inactive) | 6.87 µM (inactive) | 15.1 µM (inactive) | 12.1 µM (inactive) | 65.5 µM (inactive) | 7.62 µM (inactive) | 20 µM (inactive) | 33.5 µM (inactive) | 1.29 µM (inactive) | 11.5 µM (inactive) | 63.5 µM (inactive) | 11.7 µM (inactive)
14 | COC(=O)/C(=C\Nc1cccc(C)n1)S(=O)(=O)c1ccc(C)cc1 | 39 µM (inactive) | > 100 µM (inactive) | 52.2 µM (inactive) | 96.2 µM (inactive) | 45.7 µM (inactive) | 76.4 µM (inactive) | > 100 µM (inactive) | 77.6 µM (inactive) | 48 µM (inactive) | 66.4 µM (inactive) | 20.7 µM (inactive) | 27.1 µM (inactive) | 54.5 µM (inactive) | > 100 µM (inactive) | 21.1 µM (inactive) | 38.9 µM (inactive) | > 100 µM (inactive) | 67 µM (inactive) | 70.8 µM (inactive) | 86.3 µM (inactive)

Source: ChEMBL document CHEMBL1201862, “PubChem BioAssay data set” (2004)
